What all share (conditions): Compound concentration 10 µM
The target of assay [1] is Sigma non-opioid intracellular receptor 1 (Homo sapiens) (UniProt Q99720).
Description: PDSP Primary Binding target: SIGMAR1 - Compounds are tested at 10 uM concentration, plate are incubated at room temperature in the dark for 90 minutes. Reaction are stopped by vacuum filtration onto 0.3% polyethyleneimine soaked filter mats using Filtermate harvester. Scintilation cocktail is then melted onto microwave-dried filters on a hot plate and the radio activity is counted in Microbia counter.
In assay [2] the target is 5-hydroxytryptamine receptor 6 (Homo sapiens) (UniProt P50406).
Description: PDSP Primary Binding target: HTR6 - Compounds are tested at 10 uM concentration, plate are incubated at room temperature in the dark for 90 minutes. Reaction are stopped by vacuum filtration onto 0.3% polyethyleneimine soaked filter mats using Filtermate harvester. Scintilation cocktail is then melted onto microwave-dried filters on a hot plate and the radio activity is counted in Microbia counter.
Assay [3] has as its target T1, Muscarinic acetylcholine receptor M2 (Homo sapiens) (UniProt P08172).
T1 sequence (whole entry): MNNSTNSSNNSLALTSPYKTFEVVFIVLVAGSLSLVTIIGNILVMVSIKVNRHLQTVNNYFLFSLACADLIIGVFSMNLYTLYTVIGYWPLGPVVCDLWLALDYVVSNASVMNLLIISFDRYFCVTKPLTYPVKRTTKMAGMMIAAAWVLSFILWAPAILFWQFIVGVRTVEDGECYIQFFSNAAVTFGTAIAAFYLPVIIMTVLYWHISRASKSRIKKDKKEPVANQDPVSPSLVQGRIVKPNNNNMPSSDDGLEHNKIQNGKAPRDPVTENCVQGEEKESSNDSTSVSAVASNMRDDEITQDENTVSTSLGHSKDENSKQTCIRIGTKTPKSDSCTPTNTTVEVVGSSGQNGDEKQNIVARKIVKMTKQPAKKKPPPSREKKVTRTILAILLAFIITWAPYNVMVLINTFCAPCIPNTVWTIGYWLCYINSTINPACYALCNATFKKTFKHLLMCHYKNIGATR
Description: PDSP Primary Binding target: CHRM2 - Compounds are tested at 10 uM concentration, plate are incubated at room temperature in the dark for 90 minutes. Reaction are stopped by vacuum filtration onto 0.3% polyethyleneimine soaked filter mats using Filtermate harvester. Scintilation cocktail is then melted onto microwave-dried filters on a hot plate and the radio activity is counted in Microbia counter.

Assay [4] addresses Beta-2 adrenergic receptor (Homo sapiens) (UniProt P07550).
Description: PDSP Primary Binding target: ADRB2 - Compounds are tested at 10 uM concentration, plate are incubated at room temperature in the dark for 90 minutes. Reaction are stopped by vacuum filtration onto 0.3% polyethyleneimine soaked filter mats using Filtermate harvester. Scintilation cocktail is then melted onto microwave-dried filters on a hot plate and the radio activity is counted in Microbia counter.
Assay [5] deals with Delta-type opioid receptor (Homo sapiens) (UniProt P41143).
Description: PDSP Primary Binding target: OPRD1 - Compounds are tested at 10 uM concentration, plate are incubated at room temperature in the dark for 90 minutes. Reaction are stopped by vacuum filtration onto 0.3% polyethyleneimine soaked filter mats using Filtermate harvester. Scintilation cocktail is then melted onto microwave-dried filters on a hot plate and the radio activity is counted in Microbia counter.
For assay [6], the target named is D(3) dopamine receptor (Homo sapiens) (UniProt P35462).
Description: PDSP Primary Binding target: DRD3 - Compounds are tested at 10 uM concentration, plate are incubated at room temperature in the dark for 90 minutes. Reaction are stopped by vacuum filtration onto 0.3% polyethyleneimine soaked filter mats using Filtermate harvester. Scintilation cocktail is then melted onto microwave-dried filters on a hot plate and the radio activity is counted in Microbia counter.
Assay [7] deals with T2, 5-hydroxytryptamine receptor 2C (Homo sapiens) (UniProt P28335).
T2 sequence (whole entry): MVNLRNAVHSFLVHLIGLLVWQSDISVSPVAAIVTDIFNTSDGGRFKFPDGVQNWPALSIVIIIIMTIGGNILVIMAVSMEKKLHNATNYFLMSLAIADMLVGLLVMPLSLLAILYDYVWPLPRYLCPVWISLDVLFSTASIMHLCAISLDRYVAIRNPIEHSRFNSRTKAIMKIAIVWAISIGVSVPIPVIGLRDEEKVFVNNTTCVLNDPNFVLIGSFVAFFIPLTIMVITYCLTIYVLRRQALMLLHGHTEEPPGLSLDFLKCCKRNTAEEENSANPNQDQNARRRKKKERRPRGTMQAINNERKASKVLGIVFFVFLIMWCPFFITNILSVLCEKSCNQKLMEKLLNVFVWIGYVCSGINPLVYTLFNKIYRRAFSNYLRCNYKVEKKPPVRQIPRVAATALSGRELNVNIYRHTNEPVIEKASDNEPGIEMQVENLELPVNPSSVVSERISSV
Description: PDSP Primary Binding target: HTR2C - Compounds are tested at 10 uM concentration, plate are incubated at room temperature in the dark for 90 minutes. Reaction are stopped by vacuum filtration onto 0.3% polyethyleneimine soaked filter mats using Filtermate harvester. Scintilation cocktail is then melted onto microwave-dried filters on a hot plate and the radio activity is counted in Microbia counter.

Assay [8] has as its target Kappa-type opioid receptor (Homo sapiens) (UniProt P41145).
Description: PDSP Primary Binding target: OPRK1 - Compounds are tested at 10 uM concentration, plate are incubated at room temperature in the dark for 90 minutes. Reaction are stopped by vacuum filtration onto 0.3% polyethyleneimine soaked filter mats using Filtermate harvester. Scintilation cocktail is then melted onto microwave-dried filters on a hot plate and the radio activity is counted in Microbia counter.
Assay [9] has as its target D(1B) dopamine receptor (Homo sapiens) (UniProt P21918).
Description: PDSP Primary Binding target: DRD5 - Compounds are tested at 10 uM concentration, plate are incubated at room temperature in the dark for 90 minutes. Reaction are stopped by vacuum filtration onto 0.3% polyethyleneimine soaked filter mats using Filtermate harvester. Scintilation cocktail is then melted onto microwave-dried filters on a hot plate and the radio activity is counted in Microbia counter.
Assay [10] has as its target 5-hydroxytryptamine receptor 2B (Homo sapiens) (UniProt P41595).
Description: PDSP Primary Binding target: HTR2B - Compounds are tested at 10 uM concentration, plate are incubated at room temperature in the dark for 90 minutes. Reaction are stopped by vacuum filtration onto 0.3% polyethyleneimine soaked filter mats using Filtermate harvester. Scintilation cocktail is then melted onto microwave-dried filters on a hot plate and the radio activity is counted in Microbia counter.
The target of assay [11] is T3, Muscarinic acetylcholine receptor M1 (Homo sapiens) (UniProt P11229).
T3 sequence (whole entry): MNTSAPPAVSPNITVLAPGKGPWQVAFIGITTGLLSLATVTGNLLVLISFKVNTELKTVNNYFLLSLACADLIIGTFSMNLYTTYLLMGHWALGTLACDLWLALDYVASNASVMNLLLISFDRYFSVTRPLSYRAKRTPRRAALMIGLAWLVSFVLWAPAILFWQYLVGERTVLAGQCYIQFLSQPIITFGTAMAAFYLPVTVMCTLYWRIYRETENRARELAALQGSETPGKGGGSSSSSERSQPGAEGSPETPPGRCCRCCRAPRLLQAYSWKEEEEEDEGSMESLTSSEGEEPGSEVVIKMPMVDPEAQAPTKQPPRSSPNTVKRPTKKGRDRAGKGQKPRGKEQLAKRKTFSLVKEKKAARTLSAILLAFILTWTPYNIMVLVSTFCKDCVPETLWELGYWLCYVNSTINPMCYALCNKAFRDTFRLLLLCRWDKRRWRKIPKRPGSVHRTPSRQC
Description: PDSP Primary Binding target: CHRM1 - Compounds are tested at 10 uM concentration, plate are incubated at room temperature in the dark for 90 minutes. Reaction are stopped by vacuum filtration onto 0.3% polyethyleneimine soaked filter mats using Filtermate harvester. Scintilation cocktail is then melted onto microwave-dried filters on a hot plate and the radio activity is counted in Microbia counter.

The target of assay [12] is T4, Muscarinic acetylcholine receptor M4 (Homo sapiens) (UniProt P08173).
T4 sequence (whole entry): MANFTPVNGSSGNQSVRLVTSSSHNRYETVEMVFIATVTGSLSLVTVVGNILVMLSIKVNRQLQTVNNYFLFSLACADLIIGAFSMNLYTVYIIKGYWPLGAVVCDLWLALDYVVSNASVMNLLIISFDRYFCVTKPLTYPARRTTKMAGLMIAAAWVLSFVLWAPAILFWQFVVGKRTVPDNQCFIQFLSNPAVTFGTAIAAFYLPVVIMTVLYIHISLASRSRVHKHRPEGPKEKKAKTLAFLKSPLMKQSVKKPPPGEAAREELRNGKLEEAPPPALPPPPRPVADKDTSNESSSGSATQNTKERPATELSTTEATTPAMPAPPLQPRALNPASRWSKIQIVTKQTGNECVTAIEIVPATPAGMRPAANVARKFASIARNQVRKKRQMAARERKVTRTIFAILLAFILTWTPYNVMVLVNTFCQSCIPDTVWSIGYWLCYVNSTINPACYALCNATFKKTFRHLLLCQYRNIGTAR
Description: PDSP Primary Binding target: CHRM4 - Compounds are tested at 10 uM concentration, plate are incubated at room temperature in the dark for 90 minutes. Reaction are stopped by vacuum filtration onto 0.3% polyethyleneimine soaked filter mats using Filtermate harvester. Scintilation cocktail is then melted onto microwave-dried filters on a hot plate and the radio activity is counted in Microbia counter.

Assay [13] has as its target 5-hydroxytryptamine receptor 7 (Homo sapiens) (UniProt P34969).
Description: PDSP Primary Binding target: HTR7 - Compounds are tested at 10 uM concentration, plate are incubated at room temperature in the dark for 90 minutes. Reaction are stopped by vacuum filtration onto 0.3% polyethyleneimine soaked filter mats using Filtermate harvester. Scintilation cocktail is then melted onto microwave-dried filters on a hot plate and the radio activity is counted in Microbia counter.
Assay [14] has as its target T5, Alpha-2A adrenergic receptor (Homo sapiens) (UniProt P08913).
T5 sequence (whole entry): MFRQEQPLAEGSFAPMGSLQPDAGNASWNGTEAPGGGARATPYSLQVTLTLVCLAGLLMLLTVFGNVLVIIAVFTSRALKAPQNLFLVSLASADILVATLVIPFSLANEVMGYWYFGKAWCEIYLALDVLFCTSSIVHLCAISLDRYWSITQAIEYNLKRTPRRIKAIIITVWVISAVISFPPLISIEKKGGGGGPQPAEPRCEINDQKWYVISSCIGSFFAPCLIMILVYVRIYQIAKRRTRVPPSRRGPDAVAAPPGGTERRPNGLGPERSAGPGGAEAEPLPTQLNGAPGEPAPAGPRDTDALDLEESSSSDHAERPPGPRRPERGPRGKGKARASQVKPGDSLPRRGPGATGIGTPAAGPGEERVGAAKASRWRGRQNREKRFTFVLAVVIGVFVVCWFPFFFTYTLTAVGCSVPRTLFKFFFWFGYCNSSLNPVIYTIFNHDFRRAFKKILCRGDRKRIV
Description: PDSP Primary Binding target: ADRA2A - Compounds are tested at 10 uM concentration, plate are incubated at room temperature in the dark for 90 minutes. Reaction are stopped by vacuum filtration onto 0.3% polyethyleneimine soaked filter mats using Filtermate harvester. Scintilation cocktail is then melted onto microwave-dried filters on a hot plate and the radio activity is counted in Microbia counter.

Drawing on ChEMBL document CHEMBL5442219, this text covers inhibition for eleven molecules.

Sequence of Kappa-type opioid receptor (Homo sapiens) (P41145 whole entry): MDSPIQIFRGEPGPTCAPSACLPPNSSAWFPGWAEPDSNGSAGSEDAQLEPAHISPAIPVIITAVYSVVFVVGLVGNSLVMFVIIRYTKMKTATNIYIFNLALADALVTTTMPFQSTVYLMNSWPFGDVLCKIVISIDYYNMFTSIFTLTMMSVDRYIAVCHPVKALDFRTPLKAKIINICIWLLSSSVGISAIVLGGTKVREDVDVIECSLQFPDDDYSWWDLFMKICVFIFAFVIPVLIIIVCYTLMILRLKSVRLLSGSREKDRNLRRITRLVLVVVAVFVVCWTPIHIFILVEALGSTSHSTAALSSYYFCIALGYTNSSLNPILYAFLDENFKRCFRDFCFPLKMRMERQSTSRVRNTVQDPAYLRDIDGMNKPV
Sequence of 5-hydroxytryptamine receptor 6 (Homo sapiens) (P50406 whole entry): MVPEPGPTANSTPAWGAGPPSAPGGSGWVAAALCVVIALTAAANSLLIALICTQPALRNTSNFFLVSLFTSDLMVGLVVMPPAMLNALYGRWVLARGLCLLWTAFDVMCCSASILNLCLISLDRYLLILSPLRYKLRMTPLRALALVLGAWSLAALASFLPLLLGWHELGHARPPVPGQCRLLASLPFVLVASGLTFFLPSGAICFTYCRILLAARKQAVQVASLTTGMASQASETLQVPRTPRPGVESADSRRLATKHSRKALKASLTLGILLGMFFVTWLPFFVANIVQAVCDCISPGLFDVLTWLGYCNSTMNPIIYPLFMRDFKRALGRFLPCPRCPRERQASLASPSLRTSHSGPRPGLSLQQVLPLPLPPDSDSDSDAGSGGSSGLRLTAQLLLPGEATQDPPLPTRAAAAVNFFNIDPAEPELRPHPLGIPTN
Sequence of 5-hydroxytryptamine receptor 2B (Homo sapiens) (P41595 whole entry): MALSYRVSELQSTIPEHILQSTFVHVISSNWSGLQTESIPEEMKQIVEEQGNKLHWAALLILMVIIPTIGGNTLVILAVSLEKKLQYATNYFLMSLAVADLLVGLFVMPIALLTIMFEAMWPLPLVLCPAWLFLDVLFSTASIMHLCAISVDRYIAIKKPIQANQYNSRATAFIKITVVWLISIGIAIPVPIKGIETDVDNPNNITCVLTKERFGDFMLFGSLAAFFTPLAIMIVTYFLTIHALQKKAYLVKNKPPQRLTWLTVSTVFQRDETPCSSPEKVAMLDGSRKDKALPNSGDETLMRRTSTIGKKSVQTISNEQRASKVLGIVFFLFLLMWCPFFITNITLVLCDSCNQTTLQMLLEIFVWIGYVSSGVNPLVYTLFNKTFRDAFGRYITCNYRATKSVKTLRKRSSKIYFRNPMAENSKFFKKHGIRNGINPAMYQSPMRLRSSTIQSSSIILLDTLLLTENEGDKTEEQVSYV
Sequence of Sigma non-opioid intracellular receptor 1 (Homo sapiens) (Q99720 whole entry): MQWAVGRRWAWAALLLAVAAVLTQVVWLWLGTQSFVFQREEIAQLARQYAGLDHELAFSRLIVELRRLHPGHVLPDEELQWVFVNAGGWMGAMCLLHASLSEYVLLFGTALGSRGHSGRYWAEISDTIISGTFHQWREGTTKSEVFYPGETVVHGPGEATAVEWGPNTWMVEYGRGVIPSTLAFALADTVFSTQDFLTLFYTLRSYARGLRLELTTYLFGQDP
Sequence of D(3) dopamine receptor (Homo sapiens) (P35462 whole entry): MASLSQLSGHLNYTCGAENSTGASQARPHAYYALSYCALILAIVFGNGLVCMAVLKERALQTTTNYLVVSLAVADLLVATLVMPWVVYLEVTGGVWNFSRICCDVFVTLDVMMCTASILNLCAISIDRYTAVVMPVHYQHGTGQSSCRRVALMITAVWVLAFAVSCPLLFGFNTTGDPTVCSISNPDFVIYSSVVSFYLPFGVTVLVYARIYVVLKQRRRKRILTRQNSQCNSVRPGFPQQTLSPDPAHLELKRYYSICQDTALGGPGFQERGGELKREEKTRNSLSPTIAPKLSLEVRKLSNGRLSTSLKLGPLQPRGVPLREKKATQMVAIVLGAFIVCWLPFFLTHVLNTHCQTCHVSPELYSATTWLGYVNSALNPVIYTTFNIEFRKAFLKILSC
Sequence of Delta-type opioid receptor (Homo sapiens) (P41143 whole entry): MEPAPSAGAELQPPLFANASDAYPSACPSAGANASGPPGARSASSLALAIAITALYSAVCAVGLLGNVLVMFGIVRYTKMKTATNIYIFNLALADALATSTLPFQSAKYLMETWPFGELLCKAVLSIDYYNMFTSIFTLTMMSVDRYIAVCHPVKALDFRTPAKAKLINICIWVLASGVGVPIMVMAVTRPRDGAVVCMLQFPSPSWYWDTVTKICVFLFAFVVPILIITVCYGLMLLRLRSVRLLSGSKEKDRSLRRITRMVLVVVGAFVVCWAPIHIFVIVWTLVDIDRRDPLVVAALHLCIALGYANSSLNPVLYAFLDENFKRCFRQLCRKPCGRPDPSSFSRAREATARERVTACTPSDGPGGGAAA
Sequence of Beta-2 adrenergic receptor (Homo sapiens) (P07550 whole entry, looked up): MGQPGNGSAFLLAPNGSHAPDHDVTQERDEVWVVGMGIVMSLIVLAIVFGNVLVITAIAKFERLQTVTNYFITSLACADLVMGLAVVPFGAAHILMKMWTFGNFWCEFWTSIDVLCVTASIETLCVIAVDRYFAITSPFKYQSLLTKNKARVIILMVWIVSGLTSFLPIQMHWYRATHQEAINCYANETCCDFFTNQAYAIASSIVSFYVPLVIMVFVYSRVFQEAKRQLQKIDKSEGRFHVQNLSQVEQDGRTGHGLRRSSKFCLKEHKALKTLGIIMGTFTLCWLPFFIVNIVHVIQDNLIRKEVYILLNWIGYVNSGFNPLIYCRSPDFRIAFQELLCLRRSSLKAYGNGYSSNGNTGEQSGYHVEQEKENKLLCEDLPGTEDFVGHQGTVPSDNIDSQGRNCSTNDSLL
Sequence of D(1B) dopamine receptor (Homo sapiens) (P21918 whole entry): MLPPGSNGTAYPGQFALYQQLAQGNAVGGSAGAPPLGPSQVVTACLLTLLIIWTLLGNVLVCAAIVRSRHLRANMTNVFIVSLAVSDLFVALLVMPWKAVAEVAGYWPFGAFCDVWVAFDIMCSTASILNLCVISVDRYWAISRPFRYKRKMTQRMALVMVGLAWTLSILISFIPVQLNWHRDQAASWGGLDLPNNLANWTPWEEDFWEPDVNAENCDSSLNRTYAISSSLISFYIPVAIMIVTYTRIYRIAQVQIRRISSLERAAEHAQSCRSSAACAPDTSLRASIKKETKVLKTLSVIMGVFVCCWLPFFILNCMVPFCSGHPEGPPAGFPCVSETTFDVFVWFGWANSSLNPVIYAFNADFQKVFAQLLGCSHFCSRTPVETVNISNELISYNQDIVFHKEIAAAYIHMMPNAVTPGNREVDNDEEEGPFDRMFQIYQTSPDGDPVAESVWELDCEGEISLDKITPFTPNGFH
Sequence of 5-hydroxytryptamine receptor 7 (Homo sapiens) (P34969 whole entry): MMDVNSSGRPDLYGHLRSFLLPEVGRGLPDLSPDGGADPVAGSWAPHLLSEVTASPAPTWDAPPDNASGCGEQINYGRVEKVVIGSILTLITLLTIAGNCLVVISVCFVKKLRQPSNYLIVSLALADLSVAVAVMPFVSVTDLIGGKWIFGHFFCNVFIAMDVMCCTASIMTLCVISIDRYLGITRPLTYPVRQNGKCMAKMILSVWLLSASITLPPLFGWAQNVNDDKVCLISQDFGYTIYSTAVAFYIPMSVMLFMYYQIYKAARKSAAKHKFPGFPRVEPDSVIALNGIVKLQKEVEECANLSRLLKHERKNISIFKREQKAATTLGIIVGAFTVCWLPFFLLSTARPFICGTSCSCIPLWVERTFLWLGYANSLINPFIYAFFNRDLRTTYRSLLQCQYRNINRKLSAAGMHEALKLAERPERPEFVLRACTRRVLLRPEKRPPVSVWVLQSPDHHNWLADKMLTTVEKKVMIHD

Take `O=C(O)CC/C=C\C[C@@H]1CO[C@H](c2ccccc2Cl)O[C@@H]1c1ccccc1O`: the inhibition (in general, the change of the read-out against control, counted positive when it falls) was -1.8% in assay [1]; -3.05% in assay [2]; -3.76% in assay [3]; -6.03% in assay [4]; 46% in assay [5]; 40% in assay [6]. Besides, the inhibition in assay [7] was -5.63%; in [8] it was 5.7%; in assay [9] it was -4.01%.
For `CN1C(=O)[C@@H](NC(=O)c2cc3ccccc3[nH]2)N=C(c2ccccc2)c2ccccc21`, the inhibition in assay [10] is 78.4%; in assay [11], 5.19%; in [12] it was -8%; in [2], 25.7%; in [4], 4.31%; in [13], 13.6%. In addition, the inhibition in assay [5] was 13%; in [6], 26.4%; in assay [7] it was 16.1%; in assay [14] it was 11.2%; in assay [8], 30.7%; in [9], -2.85%.
In the case of `O=c1ccn([C@@H]2O[C@H](COP(=O)(O)OP(=O)(O)O)[C@@H](O)[C@H]2O)c(=O)[nH]1`, the inhibition is 0.47% in assay [10]; 4.23% in assay [1]; 9.94% in assay [12]; 6.18% in [2]; 15.9% in [3]; -0.48% in assay [4]. The inhibition in assay [5] is 14.1%; in assay [6], 7.98%; in assay [7] it was 3.57%; in assay [8], 6.04%; in assay [9], -4.32%.
Consider `Cc1csc2c(N[C@@H](C)CN3CCN(S(=O)(=O)c4ccc(Cl)c(Cl)c4)CC3)ncnc12`, for which the inhibition in [10] is 32.3%; in assay [11], 6.35%; in assay [1], 86%; in assay [2], 12.8%; in assay [3] it was 1.88%; in assay [4], 1.66%. Moreover, the inhibition is 4.01% in [5]; 67.4% in assay [6]; -8.93% in assay [14]; 85.4% in assay [8]; 5.96% in [9].
For `Cc1c(OCc2cccc(-c3ccc(C(=O)O)cc3)c2)cc2c(c1C)C(=O)C(C1CCCC1)C2` (stereo not drawn), the inhibition was -9.01% in assay [11]; -6.04% in assay [1]; -3.02% in [2]; 32.3% in assay [3]; -5.2% in assay [4]; -8.42% in assay [5]. Moreover, the inhibition is 33.5% in assay [6], 6.16% in assay [7] and -0.11% in assay [8].
On to `Nc1nc2c(c(N3CCNCC3)n1)CCC1=C2[C@@H]2CCCC[C@@H]2O1`, for which the inhibition in assay [10] was 81.8%; in [11], 8.9%; in assay [1], 86.4%; in assay [12] it was -0.51%; in assay [2] it was 17.3%; in assay [13] it was 17.8%. Also, the inhibition in assay [7] is 7.29%; in assay [14] it was 4.22%; in [9], -1.02%.
With `CNC[C@H](O)c1cccc(O)c1`, the inhibition is 20.3% in assay [10]; 7.7% in assay [11]; 6.21% in [12]; 9.39% in assay [2]; -1.97% in [4]; 75.5% in assay [13]. In addition, the inhibition in [5] is 13.8%; in assay [6], 12.7%; in [7], 16.3%; in assay [14], 78.2%.
`C[C@H](NC[C@H](O)CP(=O)(O)CC1CCCCC1)c1ccc(Cl)c(Cl)c1`: the inhibition in assay [10] was 0.95%; in assay [11], 8.07%; in [1], 49.6%; in assay [12], -3.27%; in [2], 2.61%; in assay [3], 40.4%. The inhibition in assay [4] is -1.65%; in assay [5], -5.34%; in assay [6] it was 19.5%; in [8], 52.3%.
On to `C[C@H](CO)Nc1nc(SCc2cccc(Cl)c2F)nc2[nH]c(=O)sc12`, for which the inhibition in [10] was -6.11%; in assay [11], -2.82%; in [1], 15.8%; in assay [12], -0.1%; in assay [2] it was -7.23%; in assay [4], 8.37%. The inhibition in assay [13] was -7.53%; in [6], 13.7%; in [7] it was 15%; in assay [8] it was 11%; in [9], -1.9%.
As to `COc1ccc(S(=O)(=O)N2c3ccc(Cl)cc3[C@](O)(c3ccccc3Cl)[C@@H]2C(=O)N2CCC[C@H]2C(N)=O)cc1OC`, the inhibition is 0.08% in assay [10]; 16.4% in assay [1]; -1.14% in assay [2]; 29.5% in [3]; 6.53% in assay [4]; 19% in [5]. For the same molecule, the inhibition in [6] is 40.4%; in assay [7], 21.8%; in assay [14], 12.7%; in assay [8] it was 16.3%.
Consider `CC(C)(N)C(=O)N[C@H](COCc1ccccc1)C(=O)N1CCC2(CC1)CN(S(C)(=O)=O)c1ccccc12`, for which the inhibition in assay [10] was 3.09%; in assay [1] it was 16.4%; in assay [2] it was 5.9%; in assay [3], 1.1%; in assay [4], -3.52%; in assay [5] it was 3.11%. The inhibition is 25.7% in assay [6]; -2.12% in [7]; 10.4% in assay [14]; 17.4% in [8]; -1.48% in [9].
